In US7741479B2, “Urea inhibitors of MAP kinases” (Locus Pharmaceuticals, Inc., priority 2004, dated 2010):

Molecular target: T1, p38 (Homo sapiens, UniProt Q16539)
T1 construct: made in house
Assay: Protein Kinase Assay (33P incorporation from γ-[33P]ATP into GST-ATF-2 substrate)
Format: biochemical
Details: for inhibition at 3 µM: compound at 3 μM, read-out: Protein Kinase (% Inhibition at 3 μM); for inhibition at 0.5 µM: same procedure at 0.5 μM
Procedure, shortened: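 Non-activated human p38 (10 nM) was preincubated with compounds for 20 min at 30° C, then GST-ATF-2 (aa 19-96) and γ-[33P]ATP were added for 70 min at 30° C. Reactions were stopped with phosphoric acid; phosphorylated substrate was captured on phosphocellulose and scintillation-counted.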

T1 sequence (Q16539 whole entry): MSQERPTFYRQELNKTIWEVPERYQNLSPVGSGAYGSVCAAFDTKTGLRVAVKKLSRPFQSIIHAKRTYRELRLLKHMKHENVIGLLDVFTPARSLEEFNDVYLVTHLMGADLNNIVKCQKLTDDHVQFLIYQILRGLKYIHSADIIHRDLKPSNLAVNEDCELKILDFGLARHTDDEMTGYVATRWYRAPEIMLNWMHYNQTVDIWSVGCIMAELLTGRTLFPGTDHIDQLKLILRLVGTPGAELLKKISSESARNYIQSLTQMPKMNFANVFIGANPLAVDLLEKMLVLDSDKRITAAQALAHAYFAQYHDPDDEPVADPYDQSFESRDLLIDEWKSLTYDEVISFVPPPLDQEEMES

| inhibition at 3 µM [%] | inhibition at 0.5 µM [%] | other results | SMILES |
| --- | --- | --- | --- |
| 76 to 100 |  |  | CC(C)(C)c1cc(C(=O)N2CCS(=O)(=O)CC2)c(NC(=O)Nc2ccc(C#N)cc2C(F)(F)F)s1 [Example 84, 1-[5-tert-butyl-3-(1,1-dioxo-1λ^6-thiomorpholine-4-carbonyl)thiophen-2-yl]-3-(4-cyano-2-trifluoromethylphenyl)urea] |
| 26 to 50 |  |  | CC(C)(C)c1cc(C(=O)N2CCS(=O)(=O)CC2)c(NC(=O)Nc2cnc(O)c3ccccc23)s1 [Example 85, 1-[5-tert-butyl-3-(1,1-dioxo-1λ^6-thiomorpholine-4-carbonyl)thiophen-2-yl]-3-(1-hydroxyisoquinolin-4-yl)urea] |
| 76 to 100 |  |  | CC(C)(C)c1cc(C(=O)N[C@H]2CC(=O)NC2=O)c(NC(=O)Nc2cccc3ccccc23)s1 [Example 86] |
| 76 to 100 |  |  | CC1C(=O)NCCN1C(=O)c1cc(C(C)(C)C)sc1NC(=O)Nc1cccc2ccccc12 (centres unmarked) [Example 87, 1-[5-tert-butyl-3-(2-methyl-3-oxopiperazine-1-carbonyl)thiophen-2-yl]-3-naphthalen-1-ylurea] |
| 76 to 100 |  |  | COC(=O)CC1C(=O)NCCN1C(=O)c1cc(C(C)(C)C)sc1NC(=O)Nc1cccc2ccccc12 (centres unmarked) [Example 88, {1-[5-tert-butyl-2-(3-naphthalen-1-yl-ureido)thiophene-3-carbonyl]-3-oxo-piperazin-2-yl}-acetic acid methyl ester] |
| 76 to 100 |  |  | CC(C)(C)c1cc(C(=O)N2CCNC(=O)CC2)c(NC(=O)Nc2ccc(C#N)cc2C(F)(F)F)s1 [Example 89, 1-[5-tert-butyl-3-(5-oxo-[1,4]diazepane-1-carbonyl)thiophen-2-yl]-3-(4-cyano-2-trifluoromethylphenyl)urea] |
| 76 to 100 |  |  | CC(C)(C)c1cc(C(=O)N2CCNC(=O)CC2)c(NC(=O)Nc2ccc(C#N)cc2Cl)s1 [Example 90, 1-[5-tert-Butyl-3-(5-oxo-[1,4]diazepane-1-carbonyl)thiophen-2-yl]-3-(2-chloro-4-cyanophenyl)urea] |
| 76 to 100 |  |  | CC(C)(C)c1cc(C(=O)N2CCNS(=O)(=O)CC2)c(NC(=O)Nc2ccc(C#N)cc2Cl)s1 [Example 92, 1-[5-tert-Butyl-3-(1,1-dioxo-1λ^6-[1,2,5]thiadiazepane-5-carbonyl)thiophen-2-yl]-3-(4-cyano-2-chlorophenyl)urea] |
| 76 to 100 |  |  | CC(C)(C)c1cc(C(=O)N2CCNS(=O)(=O)CC2)c(NC(=O)Nc2ccc3c(c2)OCO3)s1 [Example 93, 1-Benzo[1,3]dioxol-5-yl-3-[5-tert-butyl-3-(1,1-dioxo-1λ^6-[1,2,5]thiadiazepane-5-carbonyl)thiophen-2-yl]urea] |
| 76 to 100 |  |  | CC(C)(C)c1cc(C(=O)N2CCNS(=O)(=O)CC2)c(NC(=O)Nc2ccc3c(c2)OC(F)(F)O3)s1 [Example 94, 1-[5-tert-Butyl-3-(1,1-dioxo-1λ^6-[1,2,5]thiadiazepane-5-carbonyl)thiophen-2-yl]-3-(2,2-difluorobenzo[1,3]dioxol-5-yl)urea] |
| 76 to 100 |  |  | COc1ccc(NC(=O)Nc2sc(C(C)(C)C)cc2C(=O)N2CCNS(=O)(=O)CC2)cc1Cl [Example 95, 1-[5-tert-Butyl-3-(1,1-dioxo-1λ^6-[1,2,5]thiadiazepane-5-carbonyl)thiophen-2-yl]-3-(3-chloro-4-methoxyphenyl)urea] |
| 76 to 100 |  |  | CC(C)(C)c1cc(C(=O)N2CCNS(=O)(=O)CC2)c(NC(=O)Nc2ccc(Cl)c(Cl)c2)s1 [Example 96, 1-[5-tert-Butyl-3-(1,1-dioxo-1λ^6-[1,2,5]thiadiazepane-5-carbonyl)thiophen-2-yl]-3-(3,4-dichlorophenyl)urea] |
|  |  | protein kinase inhibition (tested at 3 μM according to the procedure described above): 0-25% | CC(C)(C)c1cc(C(=O)N2CCNC(=O)CC2)c(NC(=O)NC2CCNCC2)s1 [Example 120, 1-[5-tert-Butyl-3-(5-oxo-[1,4]diazepane-1-carbonyl)thiophen-2-yl]-3-piperidin-4-ylurea] |
|  | 76 to 100 |  | CC(C)(C)c1cc(C(=O)NCc2cccnc2)c(NC(=O)Nc2cccc(Cl)c2Cl)s1 [Example 130, 5-tert-butyl-2-[3-(2,3-dichlorophenyl)ureido]thiophene-3-carboxylic acid (pyridin-3-ylmethyl)amide] |
|  | 76 to 100 |  | CC(C)(C)c1cc(C(=O)NCc2cccnc2)c(NC(=O)Nc2cccc3ccccc23)s1 [Example 131, 5-tert-Butyl-2-(3-naphthalen-1-yl-ureido)thiophene-3-carboxylic acid (pyridin-3-ylmethyl)amide] |
|  | 76 to 100 |  | CC(C)(C)c1cc(C(=O)NCc2cccnc2)c(NC(=O)Nc2ccc3ccccc3c2)s1 [Example 132, 5-tert-Butyl-2-(3-naphthalen-2-yl-ureido)thiophene-3-carboxylic acid (pyridin-3-ylmethyl)amide] |
|  | 76 to 100 |  | CC(C)(C)c1cc(C(=O)Nc2ccc3nn[nH]c3c2)c(NC(=O)Nc2cccc(Cl)c2Cl)s1 [Example 133, 5-tert-Butyl-2-[3-(2,3-dichlorophenyl)ureido]thiophene-3-carboxylic acid (3H-benzotriazol-5-yl)amide] |
|  | 76 to 100 |  | CCC1C(=O)NCCN1C(=O)c1cc(C(C)(C)C)sc1NC(=O)Nc1cccc(Cl)c1Cl (centres unmarked) [Example 134, 1-[5-tert-Butyl-3-(2-ethyl-3-oxopiperazine-1-carbonyl)thiophen-2-yl]-3-(2,3-dichlorophenyl)urea] |
|  | 76 to 100 |  | C[C@H]1C(=O)NCCN1C(=O)c1cc(C(C)(C)C)sc1NC(=O)Nc1cccc(Cl)c1Cl [Example 135, 1-[5-tert-Butyl-3-(2-methyl-3-oxopiperazine-1-carbonyl)thiophen-2-yl]-3-(2,3-dichlorophenyl)urea] |
|  | 76 to 100 |  | CC(C)(C)c1cc(C(=O)N2CCNC(=O)C2(C)C)c(NC(=O)Nc2cccc(Cl)c2Cl)s1 [Example 136, 1-[5-tert-Butyl-3-(2,2-dimethyl-3-oxo-piperazine-1-carbonyl)thiophen-2-yl]-3-(2,3-dichlorophenyl)urea] |
